Data published in patent US20230382925A1, “MODULATORS OF CYSTIC FIBROSIS TRANSMEMBRANE CONDUCTANCE REGULATOR” (VERTEX PHARMACEUTICALS INCORPORATED, priority 2020, published 2023).

Columns and labels:
[1] = biological target: T1, CFTR (Homo sapiens, UniProt P13569); test: Membrane Potential Dye, Enteroid Assay A; type: cell-based; conditions: for EC50: read-out: Ent. A EC50
Procedure: Base medium (ADF+++) consisted of Advanced […], 2 mM Glutamax, 10 mM HEPES, 1 μg/mL penicillin/streptomycin.
Intestinal enteroid maintenance medium (IEMMN) consisted of ADF+++, 1× B27 supplement, 1× N2 supplement, 1.25 mM N-acetyl cysteine, 10 mM Nicotinamide, 50 ng/mL hEGF, 10 nM Gastrin, 1 μg/mL hR-spondin-1, 100 ng/mL hNoggin, TGF-b type 1 inhibitor A-83-01, 100 μg/mL Primocin, 10 μM P38 MAPK inhibitor SB202190.
Bath 1 Buffer consisted of 1 mM MgCl2, 160 mM NaCl, 4.5 mM KCl, 10 mM HEPES, 10 mM Glucose, 2 mM CaCl2).
Chloride Free Buffer consisted of 1 mM Magnesium Gluconate, 2 mM Calcium Gluconate, 4.5 mM Potassium Gluconate, 160 mM Sodium Gluconate, 10 mM HEPES, 10 mM Glucose.
Bath 1 Dye Solution consisted of Bath 1 Buffer, 0.04% Pluronic F127, 20 μM Methyl Oxonol, 30 μM CaCCinh-A01, 30 μM Chicago Sky Blue.
Chloride Free Dye Solution consisted of Chloride Free Buffer, 0.04% Pluronic F127, 20 μM Methyl Oxonol, 30 μM CaCCinh-A01, 30 μM Chicago Sky Blue.
Chloride Free Dye Stimulation Solution consisted of Chloride Free Dye Solution, 10 μM forskolin, 100 μM IBMX, and 300 nM Compound III.
Human intestinal epithelial enteroid cells were obtained from the Hubrecht Institute for Developmental Biology and Stem Cell Research, Utrecht, The Netherlands and expanded in T-Flasks as previously described (Dekkers J F, Wiegerinck C L, de Jonge H R, Bronsveld I, Janssens H M, de Winter-de Groot K M, Brandsma A M, de Jong N W M, Bijvelds M J C, Scholte B J, Nieuwenhuis E E S, van den Brink S, Clevers H, van der Ent C K, Middendorp S and M Beekman J M. A functional CFTR assay using primary cystic fibrosis intestinal organoids. Nat Med. 2013 July; 19(7):939-45.).
3. Enteroid Cell Harvesting and Seeding
Cells were recovered in cell recovery solution, collected by centrifugation at 650 rpm for 5 min at 4° C., resuspended in TrypLE and incubated for 5 min at 37° C. Cells were then collected by centrifugation at 650 rpm for 5 min at 4° C. and resuspended in IEMM containing 10 μM ROCK inhibitor (RI). The cell suspension was passed through a 40 μm cell strainer and resuspended at 1×10^6 cells/mL in IEMM containing 10 μM RI. Cells were seeded at 5000 cells/well into multi-well plates and incubated for overnight at 37° C., 95% humidity and 5% CO2 prior to assay.
4. Membrane Potential Dye, Enteroid Assay A
Enteroid cells were incubated with test compound in IEMM for 18-24 hours at 37° C., 95% humidity and 5% CO2. […] Briefly, cells were washed 5 times in Bath 1 Buffer. Bath 1 Dye Solution was added, and the cells were incubated for 25 min at room temperature. Following dye incubation, cells were washed 3 times in Chloride Free Dye Solution. Chloride transport was initiated by addition of Chloride Free Dye Stimulation Solution and the fluorescence signal was read for 15 min. […] Chloride transport was then expressed as a percentage of the chloride transport following treatment with 3 μM N-[(6-amino-2-pyridyl)sulfonyl]-6-(3-fluoro-5-isobutoxy-phenyl)-2-[(4S)-2,2,4-trimethylpyrrolidin-1-yl]pyridine-3-carboxamide, 3 μM (R)-1-(2,2-difluorobenzo[d][1,3]dioxol-5-yl)-N-(1-(2,3-dihydroxypropyl)-6-fluoro-2-(1-hydroxy-2-methylpropan-2-yl)-1H-indol-5-yl)cyclopropanecarboxamide and 300 nM acute N-[2,4-bis(1,1-dimethylethyl)-5-hydroxyphenyl]-1,4-dihydro-4-oxoquinoline-3-carboxamide triple combination control (% Activity).

[2] = biological target: T1, CFTR; test: Membrane Potential Dye, Enteroid Assay B; type: cell-based; conditions: for EC50: read-out: Ent. B EC50
How it was run: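 Activity given as % of a triple-combination reference (1 μM and 3 μM correctors, 300 nM acute potentiator). Enteroids were preincubated 18-24 h with compound; chloride efflux then measured 15 min by methyl oxonol fluorescence after forskolin/IBMX/Compound III stimulation in chloride-free buffer containing CaCCinh-A01 and Chicago Sky Blue.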

T1 sequence (P13569 with tags, fused parts or gaps DEL508-508): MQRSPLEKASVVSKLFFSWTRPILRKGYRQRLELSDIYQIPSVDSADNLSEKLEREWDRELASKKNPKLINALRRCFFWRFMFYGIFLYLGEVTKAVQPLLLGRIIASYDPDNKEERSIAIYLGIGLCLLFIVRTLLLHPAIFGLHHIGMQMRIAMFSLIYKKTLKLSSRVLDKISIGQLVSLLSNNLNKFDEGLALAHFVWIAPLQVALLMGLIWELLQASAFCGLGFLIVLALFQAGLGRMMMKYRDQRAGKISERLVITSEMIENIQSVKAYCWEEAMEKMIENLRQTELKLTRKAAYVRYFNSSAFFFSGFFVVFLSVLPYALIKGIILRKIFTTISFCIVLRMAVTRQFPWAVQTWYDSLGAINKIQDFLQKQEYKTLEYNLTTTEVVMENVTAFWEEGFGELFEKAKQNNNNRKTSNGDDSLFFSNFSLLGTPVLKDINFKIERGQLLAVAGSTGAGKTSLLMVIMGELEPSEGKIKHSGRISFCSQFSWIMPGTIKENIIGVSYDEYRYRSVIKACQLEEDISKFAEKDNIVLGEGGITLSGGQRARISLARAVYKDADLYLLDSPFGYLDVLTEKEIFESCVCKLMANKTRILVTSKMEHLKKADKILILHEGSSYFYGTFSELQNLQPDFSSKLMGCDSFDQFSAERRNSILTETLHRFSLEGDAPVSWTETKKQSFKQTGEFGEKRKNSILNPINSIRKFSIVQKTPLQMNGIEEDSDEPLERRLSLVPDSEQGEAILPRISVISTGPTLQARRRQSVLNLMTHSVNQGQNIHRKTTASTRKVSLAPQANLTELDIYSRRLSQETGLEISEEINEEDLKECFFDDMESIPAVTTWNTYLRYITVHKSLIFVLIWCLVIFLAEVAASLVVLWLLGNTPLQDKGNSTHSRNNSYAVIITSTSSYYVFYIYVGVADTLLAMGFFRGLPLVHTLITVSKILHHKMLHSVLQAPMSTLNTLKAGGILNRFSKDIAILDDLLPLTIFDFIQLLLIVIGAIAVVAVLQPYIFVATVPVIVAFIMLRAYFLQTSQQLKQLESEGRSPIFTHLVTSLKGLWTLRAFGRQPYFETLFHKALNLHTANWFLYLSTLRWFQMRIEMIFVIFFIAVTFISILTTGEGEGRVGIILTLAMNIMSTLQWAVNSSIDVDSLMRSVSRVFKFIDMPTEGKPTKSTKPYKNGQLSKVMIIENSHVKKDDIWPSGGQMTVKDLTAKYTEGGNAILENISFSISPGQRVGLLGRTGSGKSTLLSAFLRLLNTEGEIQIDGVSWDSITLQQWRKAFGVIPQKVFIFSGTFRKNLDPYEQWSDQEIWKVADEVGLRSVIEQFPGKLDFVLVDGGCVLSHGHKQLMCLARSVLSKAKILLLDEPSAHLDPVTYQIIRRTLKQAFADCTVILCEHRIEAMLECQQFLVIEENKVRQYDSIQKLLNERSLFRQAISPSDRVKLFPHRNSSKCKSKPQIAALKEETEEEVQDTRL

Row | SMILES | Ent. A Max Activity (%) [1] | EC50 [1] | Ent. B Max Activity (%) [2] | EC50 [2]
1 | CNC(=O)[C@H]1CC2(C1)C[C@H](N1C(=O)c3cccc(c3)S(=O)(=O)Nc3nc(cc(-c4c(C)cccc4C)n3)OC[C@H]1CC(C)C)C2 (stereo in doubt) [Compound 346] | +++ (+++ is >60%) | < 1 µM | +++ (+++ is >60%) | < 1 µM
2 | Cc1cccc(C)c1-c1cc2nc(n1)NS(=O)(=O)c1cccc(c1)C(=O)N([C@H]1C[C@@H](C#N)C1)[C@H](CC(C)C)CO2 (stereo in doubt) [Compound 469] | +++ (+++ is >60%) | < 1 µM | +++ (+++ is >60%) | < 1 µM
3 | Cc1cccc(C)c1-c1cc2nc(n1)NS(=O)(=O)c1cccc(c1)C(=O)N(C1CC3(CCNCC3)C1)[C@H](CC(C)C)CO2 [Compound 14, (11R)-12-(7-Azaspiro[3.5]nonan-2-yl)-6-(2,6-dimethylphenyl)-11-isobutyl-2,2-dioxo-9-oxa-2λ^6-thia-3,5,12,19-tetrazatricyclo[12.3.1.14,8]nonadeca-1(18),4(19),5,7,14,16-hexaen-13-one] | +++ (+++ is >60%) | 3 to 30 µM | +++ (+++ is >60%) | < 1 µM
4 | Cc1cccc(C)c1-c1cc2nc(n1)NS(=O)(=O)c1cccc(c1)C(=O)N(C1CC3(CCN(C)CC3)C1)[C@H](CC(C)C)CO2 [Compound 15, (11R)-6-(2,6-Dimethylphenyl)-11-isobutyl-12-(7-methyl-7-azaspiro[3.5]nonan-2-yl)-2,2-dioxo-9-oxa-2λ^6-thia-3,5,12,19-tetrazatricyclo[12.3.1.14,8]nonadeca-1(18),4(19),5,7,14,16-hexaen-13-one] | +++ (+++ is >60%) | < 1 µM | +++ (+++ is >60%) | < 1 µM
5 | CC(=O)N1CCC2(CC1)CC(N1C(=O)c3cccc(c3)S(=O)(=O)Nc3nc(cc(-c4c(C)cccc4C)n3)OC[C@H]1CC(C)C)C2 [Compound 16, (11R)-12-(7-Acetyl-7-azaspiro[3.5]nonan-2-yl)-6-(2,6-dimethylphenyl)-11-isobutyl-2,2-dioxo-9-oxa-2λ^6-thia-3,5,12,19-tetrazatricyclo[12.3.1.14,8]nonadeca-1(18),4(19),5,7,14,16-hexaen-13-one] | +++ (+++ is >60%) | < 1 µM | +++ (+++ is >60%) | < 1 µM
6 | COC(=O)N1CCC2(CC1)CC(N1C(=O)c3cccc(c3)S(=O)(=O)Nc3nc(cc(-c4c(C)cccc4C)n3)OC[C@H]1CC(C)C)C2 [Compound 19, methyl 2-[(11R)-6-(2,6-dimethylphenyl)-11-isobutyl-2,2,13-trioxo-9-oxa-2λ^6-thia-3,5,12,19-tetrazatricyclo[12.3.1.14,8]nonadeca-1(18),4(19),5,7,14,16-hexaen-12-yl]-7-azaspiro[3.5]nonane-7-carboxylate] | +++ (+++ is >60%) | < 1 µM | +++ (+++ is >60%) | < 1 µM
7 | Cc1cccc(C)c1-c1cc2nc(n1)NS(=O)(=O)c1cccc(c1)C(=O)N(C1CC3(CCN(CCC(F)(F)F)CC3)C1)[C@H](CC(C)C)CO2 [Compound 20, (11R)-6-(2,6-Dimethylphenyl)-11-isobutyl-2,2-dioxo-12-[7-(3,3,3-trifluoropropyl)-7-azaspiro[3.5]nonan-2-yl]-9-oxa-2λ^6-thia-3,5,12,19-tetrazatricyclo[12.3.1.14,8]nonadeca-1(18),4(19),5,7,14,16-hexaen-13-one] | +++ (+++ is >60%) | < 1 µM | +++ (+++ is >60%) | < 1 µM
8 | CC(=O)N1C[C@H]2C[C@H](N3C(=O)c4cccc(c4)S(=O)(=O)Nc4nc(cc(-c5c(C)cccc5C)n4)OC[C@H]3CC(C)C)C[C@H]2C1 [Compound 336] | ++ (++ is 30-60%) | < 1 µM | – | –
9 | Cc1cccc(C)c1-c1cc2nc(n1)NS(=O)(=O)c1cccc(c1)C(=O)N(C1CC3(CCCCC3)C1)[C@H](CC(C)C)CO2 [Compound 338] | ++ (++ is 30-60%) | < 1 µM | – | –
10 | Cc1cccc(C)c1-c1cc2nc(n1)NS(=O)(=O)c1cccc(c1)C(=O)N(C1CC3(CCCC3)C1)[C@H](CC(C)C)CO2 [Compound 339] | +++ (+++ is >60%) | < 1 µM | – | –
11 | Cc1cccc(C)c1-c1cc2nc(n1)NS(=O)(=O)c1cccc(c1)C(=O)N(C1CC3(CCN(CCC(C)(C)C)CC3)C1)[C@H](CC(C)C)CO2 [Compound 340] | +++ (+++ is >60%) | < 1 µM | – | –
12 | Cc1cccc(C)c1-c1cc2nc(n1)NS(=O)(=O)c1cccc(c1)C(=O)N(C1CC3(CCN(C[C@H](O)CO)CC3)C1)[C@H](CC(C)C)CO2 [Compound 341] | +++ (+++ is >60%) | < 1 µM | – | –
13 | Cc1cccc(C)c1-c1cc2nc(n1)NS(=O)(=O)c1cccc(c1)C(=O)N([C@H]1CC3(C[C@H](C(=O)N(C)C)C3)C1)[C@H](CC(C)C)CO2 (stereo partly drawn) [Compound 342] | +++ (+++ is >60%) | < 1 µM | – | –
14 | Cc1cccc(C)c1-c1cc2nc(n1)NS(=O)(=O)c1cccc(c1)C(=O)N(C1CCC(C)(C)C1)[C@H](CC(C)C)CO2 (stereo partly drawn) [Compound 348] | +++ (+++ is >60%) | < 1 µM | – | –
15 | Cc1cccc(C)c1-c1cc2nc(n1)NS(=O)(=O)c1cccc(c1)C(=O)N(C1CC3(CC3)C1)[C@@H](CC1(C(F)(F)F)CC1)CO2 [Compound 351] | + (+ is <300%) | < 1 µM | – | –
16 | COC(=O)N1CCC2(CC1)CC(N1C(=O)c3cccc(c3)S(=O)(=O)Nc3nc(cc(C4CCCCC4(C)C)n3)OC[C@H]1CC(C)C)C2 (stereo partly drawn) [Compound 395] | ++ (++ is 30-60%) | < 1 µM | – | –
17 | COC(=O)N1CCC2(CC1)CC(N1C(=O)c3cccc(c3)S(=O)(=O)Nc3nc(cc(C4CCCCC4(C)C)n3)OC[C@H]1CC(C)C)C2 (stereo partly drawn) [Compound 396] | ++ (++ is 30-60%) | < 1 µM | – | –
18 | CC(C)C[C@@H]1COc2cc(C3CCCCC3(C)C)nc(n2)NS(=O)(=O)c2cccc(c2)C(=O)N1C1CC2(CCNCC2)C1 (stereo partly drawn) [Compound 399] | +++ (+++ is >60%) | < 1 µM | – | –
19 | CC(C)C[C@@H]1COc2cc(C3CCCCC3(C)C)nc(n2)NS(=O)(=O)c2cccc(c2)C(=O)N1C1CC2(CCN(C(=O)OC(C)(C)C)CC2)C1 (stereo partly drawn) [Compound 400] | ++ (++ is 30-60%) | < 1 µM | – | –
20 | Cc1cccc(C)c1-c1cc2nc(n1)NS(=O)(=O)c1cccc(c1)C(=O)N(C1CCN(C)CC1)CCO2 [Compound 438] | + (+ is <300%) | – | – | –
21 | Cc1cccc(C)c1-c1cc2nc(n1)NS(=O)(=O)c1cccc(c1)C(=O)N(C1CCOCC1)CCO2 [Compound 439] | +++ (+++ is >60%) | 3 to 30 µM | – | –
22 | CC(C)C[C@@H]1COc2cc(-c3ccccc3-c3ccccc3)nc(n2)NS(=O)(=O)c2cccc(c2)C(=O)N1C1CC2(CCN(C)CC2)C1 [Compound 471] | +++ (+++ is >60%) | < 1 µM | – | –
